≈ marks a conversion by molar mass, not a printed value. Counter-ions that a name gives are not always drawn. Like-named read-outs stand apart in the source and are kept apart here.
Tests used:
[1] = test system: Acute myeloid leukemia cells MV-4-11; assay: Cell proliferation inhibition, CellTiter-Glo; type: cell-based; conditions: MV-4-11 cells
Description: Weigh 5.61 mg of the crystal form 1 of the maleate of the compound of formula (I) prepared in Example 2, which was dissolved it in 74.7 μL of DMSO.
Configure 1000× compound storage plate (or called 1000× storage medicine plate): the 100 mM compound storage solution was diluted with DMSO. The starting concentration was 10 mM and 9 concentration gradients (th concentration of the storage solution was 10 mM, 3 mM, 1 mM, 0.3 mM, 0.1 mM, 0.03 mM, 0.01 mM, 0.001 mM and 0.0001 mM respectively) were set. The compound storage plate was sealed with a sealing tape, and stored in a refrigerator at −20° C. for later use.
Acute myeloid leukemia cells MV-4-11 (purchased from ATCC) were selected and seaded into a 96-well plate (140 μL per well) at a density of 5000/well and cultured overnight in a incubator with 37° C., 5% CO2.
1000×storage medicine plates were taken out and melt at room temperature while avoiding light. Then prepare 15× intermediate medicine plates (78.8 μL of medium and 1.2 μL of medicine-containing DMSO storage solution), which were mixed well. 10 μL of the medicine-contained medium (15×) was added into the 96-well cell plates (the final concentration was 10 μM, 3 μM, 1 μM, 0.3 μM, 0.1 μM, 0.03 μM, 0.01 μM, 0.001 μM and 0.0001 μM, respectively, and the final concentration of DMSO was […]), which were gently patted to well-mixed, then put it in a incubator with 37° C., 5% CO2, and continued to incubate for 24 hours.
Then the CellTiter-Glo method was used to detect vitality of the cell under the conditions of each drug concentration, and the rate of cell proliferation inhibition under the corresponding conditions was calculated.

[2] = Solubility test in PBS buffers of different pH, water and normal saline at room temperature; type: physicochemical; conditions: for solubility: thermodynamic from solid
Description: Weigh about 50 mg of the crystal form 1 of the maleate of the compound of formula (I) prepared in Example 2, which was added into different bottles. Then PBS buffers with different pH values were prepared. Each of them was added in batches with a small amount into each of the above bottles at room temperature till the crystal form in each bottle was just dissolved. The total amount of the solvent was recorded and the solubility was calculated.
The amorphous form of the free base of the compound of formula (I) was subjected to the same solubility study as above-mentioned.

[3] = Hygroscopicity observation on the hydrochloride (Comparative Example 2); type: physicochemical; conditions: solid in crystal form obtained with hydrochloric acid
Description: Similarly, by using the method described in Example 1 or Example 9, the according salt of the compound of formula (I) were prepared with the hydrochloric acid instead of the maleic acid or the fumaric acid.

[4] = Stability test in a 60° C. drying oven (impurity, content, XRPD); type: physicochemical; conditions: for Content % / Total impurity %: 60° C. drying oven, 21 days; for change in content or in the characteristic peaks of the XRPD pattern: after 21 days at high temperature (60° C.)
[5] = as above; type: physicochemical; conditions: for Content % / Total impurity %: 60° C. drying oven
Description: The crystal form A of the fumarate of the compound of formula (I) prepared in Example 9 and the crystal form 1 of the maleate of the compound of formula (I) prepared in Example 2 were placed in a 60° C. drying oven for different days (0 days, 7 days, 21 days). Samples were collected and detected to investigate the stability of the crystal forms.
The amorphous form of the free base of the compound of formula (I) was subjected to the same stability study as above-mentioned.
The crystal form 2 of the maleate of the compound of formula (I) prepared in Example 3 was placed in a 60° C. drying oven, and samples were taken and tested for different days (0 days, 7 days, 14 days and 30 days) to investigate the stability of the crystal form.

[6] = Hygroscopicity test by dynamic moisture adsorption instrument (DVS); type: physicochemical; conditions: for weight increasement due to moisture absorption: 25° C.
Description: Experimental method: this test was carried out by a dynamic moisture adsorption instrument. Weigh 10 mg of a solid sample, which was placed on a balance. The humidity in the sample room was controlled through the program. The sample was placed under the same temperature and different humidity conditions for 7 days, then the quality change of the tested sample was measured with relative humidity. Detection procedure: the humidity change was 0%-95%-0%; the test temperature was 25° C.
The amorphous form of the free base of the compound of formula (I) was subjected to the same hygroscopicity study as above-mentioned. […] When the relative humidity is 95%, the weight increasement due to moisture absorption can reach 9.5%, and the sample after moisture absorption is not easy to desorb.

[7] = amorphous form, 60° C., 7th and 14th day

Row | SMILES | Content % [4] [%] | Total impurity % [4] [%] | change in content or in the characteristic peaks of the XRPD pattern [4] | Content % ([5]; 0 day) [%] | Total impurity % ([5]; 0 day) [%] | Content % ([5]; 7 days) [%] | Total impurity % ([5]; 7 days) [%] | hygroscopicity (in words) ([6]; environment humidity RH=60%) | weight increasement due to moisture absorption ([6]; environment humidity RH=60%) | Solubility (S, mg/mL) ([2]; PBS pH 6.5, room temperature) | Solubility (S, mg/mL) ([2]; PBS pH 7.0, room temperature) | Solubility (S, mg/mL) ([2]; PBS pH 7.5, room temperature) | Solubility (S, mg/mL) ([2]; water, room temperature) | Content % ([5]; 14 days) [%] | Total impurity % ([5]; 14 days) [%] | also measured
1 | COC[C@@H](C)N[C@H]1CC[C@H](Nc2cc(-c3csc(NCC4(C#N)CCOCC4)n3)c(Cl)cn2)CC1 [listing 1 of 2 here] | – | – | – | – | – | – | – | – | – | – | – | – | – | – | – | IC50 ([1]; Homo sapiens, MV4-11, 24 hours incubation, CellTiter-Glo, read-out: absolute half inhibitory concentration (ABsIC50)): 32 nM; solubility ([2]; PBS buffer, pH 6, aqueous buffer, PBS 6.0, room temperature, read-out: Solubility (S, mg/mL)): 41 mg/mL (≈ 79 mM); solubility ([2]; PBS buffers of different pH, water and normal saline, aqueous buffer, PBS 6.0-7.5, water, normal saline, read-out: solubility in each of the above-mentioned solvents (summary)): 30 to 60 mg/mL (≈ 57.8 to 116 mM); solubility ([2]; normal saline, saline or isotonic, normal saline, room temperature, read-out: Solubility (S, mg/mL)): 50 mg/mL (≈ 96.3 mM)
2 | COC[C@@H](C)N[C@H]1CC[C@H](Nc2cc(-c3csc(NCC4(C#N)CCOCC4)n3)c(Cl)cn2)CC1 [listing 2 of 2 here] | – | – | – | – | – | – | – | – | – | – | – | – | – | – | – | hygroscopicity (in words) [3]: very hygroscopic
3 | COC[C@@H](C)N[C@H]1CC[C@H](Nc2cc(-c3csc(NCC4(C#N)CCOCC4)n3)c(Cl)cn2)CC1 [crystal form 1 of the maleate of the compound of formula (I)] | 99.86 | 0.14 | basically no change | 99.91 | 0.09 | 99.88 | 0.12 | weak | about 1% | 45 mg/mL | 57 mg/mL | 62 mg/mL | 31 mg/mL | – | – | effect on cell growth ([1]; concentration range 0.0001 μM to 0.01 μM): no significant changes in cell growth; effect on cell growth ([1]; concentration range 0.03 μM to 10 μM): significant inhibitory effect
4 | COC[C@@H](C)N[C@H]1CC[C@H](Nc2cc(-c3csc(NCC4(C#N)CCOCC4)n3)c(Cl)cn2)CC1 [crystal form 2] | – | – | – | 99.13 | 0.87 | 98.56 | 1.44 | – | – | – | – | – | – | 97.73 | 2.27 | characteristic peaks of the XRPD pattern ([4]; after 14 days at high temperature (60° C.)): basically unchanged

Second part, led by results:

Row | Content % [4] [%] | Total impurity % [4] [%] | change in content or in the characteristic peaks of the XRPD pattern [4] | Content % ([5]; 0 day) [%] | Total impurity % ([5]; 0 day) [%] | Content % ([5]; 7 days) [%] | Total impurity % ([5]; 7 days) [%] | hygroscopicity (in words) ([6]; environment humidity RH=60%) | weight increasement due to moisture absorption ([6]; environment humidity RH=60%) | Solubility (S, mg/mL) ([2]; PBS pH 6.5, room temperature) | Solubility (S, mg/mL) ([2]; PBS pH 7.0, room temperature) | Solubility (S, mg/mL) ([2]; PBS pH 7.5, room temperature) | Solubility (S, mg/mL) ([2]; water, room temperature) | Content % ([5]; 14 days) [%] | Total impurity % ([5]; 14 days) [%] | SMILES | also measured
5 | 99.22 | 0.78 | basically no change | 99.38 | 0.62 | 99.31 | 0.69 | weak | about 1% | – | – | – | – | – | – | COC[C@@H](C)N[C@H]1CC[C@H](Nc2cc(-c3csc(NCC4(C#N)CCOCC4)n3)c(Cl)cn2)CC1 [crystal form A of the fumarate of the compound of formula (I] | –
6 | – | – | – | 99.50 | 0.50 | 98.42 | 1.58 | – | – | about 15.10 mg/mL | about 12.5 mg/mL | about 0.44 mg/mL | about 0.1 mg/mL | 97.44 | 2.56 | COC[C@@H](C)N[C@H]1CC[C@H](Nc2cc(-c3csc(NCC4(C#N)CCOCC4)n3)c(Cl)cn2)CC1 [free base of the compound of formula (I), 4-(((4-(5-chloro-2-(((1R,4r)-4-(((R)-1-methoxypropyl-2-yl)amino)cyclohexyl)amino)pyridin-4-yl)thiazol-2-yl)amino)methyl)tetrahydro-2H-pyran-4-carbonitrile] | stability (in words) [4, 7]: poor stability; change in the character (appearance) [5, 7]: changes from a yellow solid to a hard gelatinous substance; hygroscopicity (in words) ([6]; environment humidity higher than 60%, amorphous form): quite strong hygroscopicity; weight increasement due to moisture absorption ([6]; relative humidity 95%): 9.5%; solubility ([2]; PBS buffer, pH 7.2, aqueous buffer, PBS pH 7.2, room temperature, read-out: Solubility (S, mg/mL)): ~10.1 mg/mL; solubility compared with crystal form 1 of the maleate (in words) ([2]; same experiment conditions, amorphous free base): significant lower solubility

Source: patent US12384774B2, “Polymorph of CDK9 inhibitor and preparation method for polymorph and use thereof” (GenFleet Therapeutics (Shanghai) Inc., priority 2019, dated 2025)
